In patent publication US20250064941A1, “SIGLEC LIGANDS, CONJUGATES, AND METHODS OF USE THEREOF” (Osprey Biopharmaceuticals, Inc., priority 2023, published 2025):

Key:
[1] = target: T1, mouse Siglec-2-Fc-Avi (CD22) (Mus musculus, UniProt P35329); assay: SPR binding affinity to mouse CD22; details: steady-state analysis
T1 construct: made in house
T1 sequence (P35329 22-708 limits assumed): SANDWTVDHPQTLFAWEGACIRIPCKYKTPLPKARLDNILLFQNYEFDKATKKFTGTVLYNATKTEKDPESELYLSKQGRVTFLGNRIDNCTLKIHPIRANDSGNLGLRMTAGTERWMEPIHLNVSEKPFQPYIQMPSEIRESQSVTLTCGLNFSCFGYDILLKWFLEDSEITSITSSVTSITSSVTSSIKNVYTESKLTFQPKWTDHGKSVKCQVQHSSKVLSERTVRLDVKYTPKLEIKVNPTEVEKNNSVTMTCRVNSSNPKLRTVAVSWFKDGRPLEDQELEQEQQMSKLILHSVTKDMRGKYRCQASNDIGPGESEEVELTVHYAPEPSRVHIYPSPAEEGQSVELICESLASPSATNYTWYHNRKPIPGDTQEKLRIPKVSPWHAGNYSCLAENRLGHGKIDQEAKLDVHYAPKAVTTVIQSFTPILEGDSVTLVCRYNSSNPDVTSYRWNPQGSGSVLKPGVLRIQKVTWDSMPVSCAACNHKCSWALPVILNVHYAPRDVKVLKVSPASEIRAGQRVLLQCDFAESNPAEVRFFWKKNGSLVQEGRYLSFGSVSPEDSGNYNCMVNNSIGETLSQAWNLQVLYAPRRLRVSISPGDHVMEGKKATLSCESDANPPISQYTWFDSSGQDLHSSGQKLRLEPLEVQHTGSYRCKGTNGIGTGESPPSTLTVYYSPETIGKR
Summary of the method: (§1)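 Steady-state fits gave the affinities. Before capture on a streptavidin surface, biotinylated CD22 had native sialic acids stripped (SialoExo, 4 hours, 37° C.). Running buffer: 10 mM HEPES pH 7.5, 150 mM NaCl, 0.05% Tween-20, 1% DMSO, with DMSO solvent correction.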

[2] = target: T2, human Siglec-2/CD22 protein (Homo sapiens, UniProt P20273); assay: SPR binding affinity to human CD22; details: steady-state analysis
T2 construct: purchased Acro Biosystems SI2-H82E3
T2 sequence (P20273 20-847): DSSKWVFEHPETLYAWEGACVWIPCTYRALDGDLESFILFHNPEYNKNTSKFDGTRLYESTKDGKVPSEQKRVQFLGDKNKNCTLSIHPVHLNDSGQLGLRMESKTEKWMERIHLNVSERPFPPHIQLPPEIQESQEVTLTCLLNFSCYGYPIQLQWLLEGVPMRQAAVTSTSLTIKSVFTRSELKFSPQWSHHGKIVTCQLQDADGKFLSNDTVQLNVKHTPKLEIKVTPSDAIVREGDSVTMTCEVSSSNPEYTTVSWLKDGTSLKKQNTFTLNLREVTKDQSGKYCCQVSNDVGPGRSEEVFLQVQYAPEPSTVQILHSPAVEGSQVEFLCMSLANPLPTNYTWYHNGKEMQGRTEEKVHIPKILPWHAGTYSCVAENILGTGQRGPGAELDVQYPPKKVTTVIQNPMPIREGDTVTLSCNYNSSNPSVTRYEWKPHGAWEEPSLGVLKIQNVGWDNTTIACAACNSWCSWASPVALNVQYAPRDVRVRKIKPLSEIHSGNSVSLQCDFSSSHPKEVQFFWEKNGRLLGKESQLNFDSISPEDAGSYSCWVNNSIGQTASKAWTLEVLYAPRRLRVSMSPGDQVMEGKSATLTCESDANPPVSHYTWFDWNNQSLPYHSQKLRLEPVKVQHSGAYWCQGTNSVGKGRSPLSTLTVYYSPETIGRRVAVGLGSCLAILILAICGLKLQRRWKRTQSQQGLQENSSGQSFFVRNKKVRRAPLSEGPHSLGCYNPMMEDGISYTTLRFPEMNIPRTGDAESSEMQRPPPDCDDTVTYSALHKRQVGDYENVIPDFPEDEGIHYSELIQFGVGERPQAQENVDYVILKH
Summary of the method: as §1

cynomolgus Siglec-2/CD22 = cynomolgus Siglec-2/CD22 (Macaca fascicularis, UniProt A0A2K5WCZ6); assay: biochemical; type: binding; details: SPR, steady-state analysis; read-out: Affinity cyno CD22
Sequence of cynomolgus Siglec-2/CD22 (A0A2K5WCZ6 entry or part of it): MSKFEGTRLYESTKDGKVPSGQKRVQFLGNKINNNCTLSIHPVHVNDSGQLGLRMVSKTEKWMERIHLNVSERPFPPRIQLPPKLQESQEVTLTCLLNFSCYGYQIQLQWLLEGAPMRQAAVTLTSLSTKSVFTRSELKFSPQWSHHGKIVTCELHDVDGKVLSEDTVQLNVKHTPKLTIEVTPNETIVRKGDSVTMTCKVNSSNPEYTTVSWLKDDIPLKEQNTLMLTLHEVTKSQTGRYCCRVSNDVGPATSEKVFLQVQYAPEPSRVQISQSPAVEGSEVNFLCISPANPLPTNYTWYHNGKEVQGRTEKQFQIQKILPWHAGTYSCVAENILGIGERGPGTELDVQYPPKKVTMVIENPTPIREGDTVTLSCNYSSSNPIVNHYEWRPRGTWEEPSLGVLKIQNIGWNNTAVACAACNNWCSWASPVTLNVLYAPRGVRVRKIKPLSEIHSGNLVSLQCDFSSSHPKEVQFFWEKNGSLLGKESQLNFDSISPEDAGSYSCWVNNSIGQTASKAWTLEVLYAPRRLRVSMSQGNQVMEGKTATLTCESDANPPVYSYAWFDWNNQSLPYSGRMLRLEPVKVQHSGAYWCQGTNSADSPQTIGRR
Summary of the method: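 SPR with desialylated (SialoExo, 4 h, 37° C.) cynomolgus CD22 amine-coupled to a CM5 chip. Running buffer 10 mM HEPES, 150 mM NaCl, 0.05% Tween-20, pH 7.5, 1% DMSO, with solvent correction; 120 s dissociation. Affinities from steady-state analysis.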

| SMILES | Kd [1] | Kd [2] | Kd (cynomolgus Siglec-2/CD22) |
| --- | --- | --- | --- |
| C#CCOCCOCCO[C@]1(C(=O)O)C[C@H](O)[C@@H](NC(=O)CO)[C@H]([C@H](O)[C@H](O)CNC(=O)CC)O1 [Compound 15, (2R,4S,5R,6R)-6-((1R,2R)-1,2-dihydroxy-3-propionamidopropyl)-4-hydroxy-5-(2-hydroxyacetamido)-2-(2-(2-(prop-2-yn-1-yloxy)ethoxy)ethoxy)tetrahydro-2H-pyran-2-carboxylic acid] | > 10 µM | > 10 µM | > 10 µM |
| C#CCOc1ccc(CO[C@]2(C(=O)O)C[C@H](O)[C@@H](NC(=O)CO)[C@H]([C@H](O)[C@H](O)CNC(=O)Cc3ccc(O)cc3)O2)cc1 [Compound 146, (2R,4S,5R,6R)-6-((1R,2R)-1,2-dihydroxy-3-(2-(4-hydroxyphenyl)acetamido)propyl)-4-hydroxy-5-(2-hydroxyacetamido)-2-((4-(prop-2-yn-1-yloxy)benzyl)oxy)tetrahydro-2H-pyran-2-carboxylic acid] | 1 to 10 µM | 1 to 10 µM | < 1 µM |
| C#CCCOc1ccc(CO[C@]2(C(=O)O)C[C@H](O)[C@@H](NC(=O)CO)[C@H]([C@H](O)[C@H](O)CNC(=O)Cc3ccc(O)c(Cl)c3)O2)cc1 [Compound 136, (2R,4S,5R,6R)-2-((4-(but-3-yn-1-yloxy)benzyl)oxy)-6-((1R,2R)-3-(2-(3-chloro-4-hydroxyphenyl)acetamido)-1,2-dihydroxypropyl)-4-hydroxy-5-(2-hydroxyacetamido)tetrahydro-2H-pyran-2-carboxylic acid] | 1 to 10 µM | < 1 µM | < 1 µM |
| C#CCOCc1cn([C@]2(C(=O)O)C[C@H](O)[C@@H](NC(=O)CO)[C@H]([C@H](O)[C@H](O)CNC(=O)Cc3ccc(-c4ccc(O)cc4)cc3)O2)nn1 [Compound 62, (2R,4S,5R,6R)-6-((1R,2R)-1,2-dihydroxy-3-(2-(4′-hydroxy-[1,1′-biphenyl]-4-yl)acetamido)propyl)-4-hydroxy-5-(2-hydroxyacetamido)-2-(4-((prop-2-yn-1-yloxy)methyl)-1H-1,2,3-triazol-1-yl)tetrahydro-2H-pyran-2-carboxylic acid] | 1 to 10 µM | 1 to 10 µM | 1 to 10 µM |
| C#CCOCCCCCCO[C@]1(C(=O)O)C[C@H](O)[C@@H](NC(=O)NC2CC2)[C@H]([C@H](O)[C@H](O)CNC(=O)Cc2ccc(Cl)cc2)O1 [Compound 89, (2R,4S,5R,6R)-6-((1R,2R)-3-(2-(4-chlorophenyl)acetamido)-1,2-dihydroxypropyl)-5-(3-cyclopropylureido)-4-hydroxy-2-((6-(prop-2-yn-1-yloxy)hexyl)oxy)tetrahydro-2H-pyran-2-carboxylic acid] | 1 to 10 µM | 1 to 10 µM | 1 to 10 µM |
| C#CCOCCOCCO[C@]1(C(=O)O)C[C@H](O)[C@@H](NC(=O)CO)[C@H]([C@H](O)[C@H](O)CNC(=O)Cc2ccc(OC)cc2)O1 [Compound 174, (2R,4S,5R,6R)-6-((1R,2R)-1,2-dihydroxy-3-(2-(4-methoxyphenyl)acetamido)propyl)-4-hydroxy-5-(2-hydroxyacetamido)-2-(2-(2-(prop-2-yn-1-yloxy)ethoxy)ethoxy)tetrahydro-2H-pyran-2-carboxylic acid] | 1 to 10 µM | 1 to 10 µM | 1 to 10 µM |
| C#CCOCCOCCO[C@]1(C(=O)O)C[C@H](O)[C@@H](NC(=O)CO)[C@H]([C@H](O)[C@H](O)CNC(=O)c2cccc(O)c2)O1 [Compound 29, (2R,4S,5R,6R)-6-((1R,2R)-1,2-dihydroxy-3-(3-hydroxybenzamido)propyl)-4-hydroxy-5-(2-hydroxyacetamido)-2-(2-(2-(prop-2-yn-1-yloxy)ethoxy)ethoxy)tetrahydro-2H-pyran-2-carboxylic acid] | > 10 µM | 1 to 10 µM | > 10 µM |

Continued, values first:

| Kd [1] | Kd [2] | Kd (cynomolgus Siglec-2/CD22) | SMILES |
| --- | --- | --- | --- |
| 1 to 10 µM | < 1 µM | < 1 µM | CC(=O)NCCOCCOCCOCCOCCNC(=O)CCCCCCO[C@]1(C(=O)O)C[C@H](O)[C@@H](NC(=O)CO)[C@H]([C@H](O)[C@H](O)CNC(=O)Cc2ccc(-c3nnn[nH]3)cc2)O1 [Cpd. 266, (2R,4S,5R,6R)-6-((1R,2R)-3-(2-(4-(1H-tetrazol-5-yl)phenyl)acetamido)-1,2-dihydroxypropyl)-2-((2,19-dioxo-6,9,12,15-tetraoxa-3,18-diazapentacosan-25-yl)oxy)-4-hydroxy-5-(2-hydroxyacetamido) tetrahydro-2H-pyran-2-carboxylic acid] |
| < 1 µM | < 1 µM | < 1 µM | O=C(Cc1ccc(Cl)cc1)NC[C@@H](O)[C@@H](O)[C@@H]1O[C@@](SCc2ccc(C(=O)O)cc2)(C(=O)O)C[C@H](O)[C@H]1NC(=O)CO [Compound 195, (2S,4S,5R,6R)-2-((4-carboxybenzyl)thio)-6-((1R,2R)-3-(2-(4-chlorophenyl)acetamido)-1,2-dihydroxypropyl)-4-hydroxy-5-(2-hydroxyacetamido)tetrahydro-2H-pyran-2-carboxylic acid] |
| 1 to 10 µM | 1 to 10 µM | < 1 µM | C#CCOCCCCCCO[C@]1(C(=O)O)C[C@H](O)[C@@H](NC(=O)NCCO)[C@H]([C@H](O)[C@H](O)CNC(=O)Cc2ccc(Cl)cc2)O1 [Compound 185, (2R,4S,5R,6R)-6-((1R,2R)-3-(2-(4-chlorophenyl)acetamido)-1,2-dihydroxypropyl)-4-hydroxy-5-(3-(2-hydroxyethyl)ureido)-2-((6-(prop-2-yn-1-yloxy)hexyl)oxy)tetrahydro-2H-pyran-2-carboxylic acid] |
| 1 to 10 µM | < 1 µM | < 1 µM | CC(=O)NCCOCCOCCOCCOCCNC(=O)CCCCCCO[C@]1(C(=O)O)C[C@H](O)[C@@H](NC(=O)CO)[C@H]([C@H](O)[C@H](O)CNC(=O)Cc2ccc(C(F)F)cc2)O1 [Cpd. 257, (2R,4S,5R,6R)-6-((1R,2R)-3-(2-(4-(difluoromethyl)phenyl)acetamido)-1,2-dihydroxypropyl)-2-((2,19-dioxo-6,9,12,15-tetraoxa-3,18-diazapentacosan-25-yl)oxy)-4-hydroxy-5-(2-hydroxyacetamido)tetrahydro-2H-pyran-2-carboxylic acid] |
| < 1 µM | < 1 µM | < 1 µM | CC(=O)NCCOCCOCCOCCOCCC(=O)NCCCCCCO[C@]1(C(=O)O)C[C@H](O)[C@@H](NC(=O)CO)[C@H]([C@H](O)[C@H](O)CNC(=O)Cc2ccc(-c3ccccc3)cc2)O1 [Compound 219, (2R,4S,5R,6R)-6-((1R,2R)-3-(2-([1,1′-biphenyl]-4-yl)acetamido)-1,2-dihydroxypropyl)-2-((2,18-dioxo-6,9,12,15-tetraoxa-3,19-diazapentacosan-25-yl)oxy)-4-hydroxy-5-(2-hydroxyacetamido)tetrahydro-2H-pyran-2-carboxylic acid] |
| > 10 µM | > 10 µM | > 10 µM | C#CCOCCOCCO[C@]1(C(=O)O)C[C@H](O)[C@@H](NS(=O)(=O)NC)[C@H]([C@H](O)[C@H](O)CNC(=O)Cc2ccc(-c3ccc(O)cc3)cc2)O1 [Compound 225, (2R,4S,5R,6R)-6-((1R,2R)-1,2-dihydroxy-3-(2-(4′-hydroxy-[1,1′-biphenyl]-4-yl)acetamido)propyl)-4-hydroxy-5-((N-methylsulfamoyl)amino)-2-(2-(2-(prop-2-yn-1-yloxy)ethoxy)ethoxy)tetrahydro-2H-pyran-2-carboxylic acid] |
